# Data as given in publication PMC6331991, “Anemarrhena asphodeloides Non-Steroidal Saponin Components Alter the Pharmacokinetic Profile of Its Steroidal Saponins in Rat” (Molecules, 2015).
# Where two headings read alike, the source gives them in different places.
# Tests used:
# [1] = Stability of analytes in rat plasma QC samples (auto-sampler, long-term, freeze-thaw); assay type: in vitro ADME; conditions: n = 6; for Stability, Auto-Sampler for 24 h, Mean: 4 °C; for Stability, Freeze–Thaw Cycles, Mean: three cycles −80 °C to room temperature
# Description: Stock solutions were separately prepared by dissolving the four accurately weighed standard reference compounds in a mixture of 50% acetonitrile. Then, the four stock solutions were mixed and diluted with 50% acetonitrile to prepare a final mixed standard solution containing 650.00 ng/mL of timosaponin BII, 620.00 ng/mL of anemarsaponin BIII, 485.00 ng/mL of timosaponin AIII, 530.00 ng/mL of timosaponin E1. A series of working solutions were freshly prepared by diluting mixed standard solution with 50% acetonitrile to the appropriate concentration. The internal standard solution of ginsenoside Re was prepared to the concentration of 920 ng/mL in 50% acetonitrile. For the validation of the method, three concentrations of standard solution containing timosaponin BII (5.20, 52.00 and 520 ng/mL), anemarsaponin BIII (4.96, 49.60 and 496.00 ng/mL), timosaponin AIII (3.88, 38.8 and 388 ng/mL), timosaponin E1 (4.24, 42.40 and 424.00 ng/mL) were used for preparing the QC plasma samples. The stability experiments were measured by analyzing replicates (n = 6) of three QC samples during the sample storing and processing procedures. For all stability experiments, freshly prepared stability testing QC samples were evaluated by using freshly prepared standard curve for the measurement. The post-preparation stability was tested by determined of the extracted QC samples stored in the auto-sampler (4 °C) for 24 h. The freeze and thaw stability were determined after three freeze-thaw cycles (−80 °C to room temperature). Long-term stability in rat plasma stored at −80 °C was studied for a period of one month.
# [2] = Pharmacokinetic study of four steroidal saponins in rat plasma after oral administration of A. asphodeloides fractions (UPLC-MS/MS); assay type: in vivo, Sprague-Dawley rats; conditions: for AUC(0-t) / half-life / Tmax / Cmax: male, Sprague-Dawley; for AUC(0-t) / half-life / Tmax / Cmax / T1/2: rat plasma, single oral dose, n = 6, mean ± S.D.; for AUC(0-t): read-out: AUC0–t; for half-life: read-out: T1/2 (converted); for Tmax: read-out: Tmax; for Cmax: read-out: Cmax; for shape of plasma concentration-time curve: after oral administration
# Description: The dried A. asphodeloides were chopped into slices before using. The A. asphodeloides was immersed in water (1:10, w/v) and extracted twice by refluxing for 2 h. After filtration, the supernatant was condensed to a certain volume under reduced pressure, and 95% ethanol was added to the water extract filtrates until the concentration of ethanol was 80%. The precipitate was filtered as the macromolecular fraction (MF), the ethanol supernatant was concentrated under reduced pressure to a certain volume under vacuum and then purified by gradient elution with water, 40% ethanol and 70% ethanol from an AB-8 MARO porous resin column and then the water-eluted fraction was combined with the 40% ethanol-eluted fraction as the small molecule fraction (SF) and the 70% ethanol eluted fraction was the A. asphodeloides saponins extract (ASE). All of the residues were lyophilized and the resulting dry powder was stored at 4 °C before usage. The contents of four steroidal saponins in ASE dry powder were measured quantitatively by the external standard method using the same chromatography conditions as described above. The contents of timosaponin BII, anemarsaponin BIII, timosaponin AIII and timosaponin E1 in ASE were 429.12, 89.81, 59.13 and 41.25 mg/g, respectively.
# Frozen plasma samples were unfrozen at room temperature and treated as follows: to each 200 µL plasma sample, 20 µL of IS (920 ng/mL ginsenoside Re) working solution and 600 µL of acetonitrile were added. After vortexing for 2 min and centrifugation at 13,000 rpm at 4 °C for 10 min the supernatant was transferred into a new tube and evaporated to dryness in a rotary evaporator at 39 °C and the residue was reconstituted in 100 µL of 0.1% formic acid–acetonitrile (50:50, v/v), vortexed for 2 min and centrifuged at 13,000 rpm at 4 °C for 10 min. The supernatant was transferred to an autosampler vial and an aliquot of 2 μL was injected onto the UPLC-MS/MS system for analysis.
# Male Sprague-Dawley rats (250–280 g) were obtained from the Shanghai Slac Laboratory Animal Co., Ltd. (Shanghai, China). All animals were kept in an environmentally controlled breeding room (temperature: 20–25 °C, humidity: 55%–65%) for 1 week before the experiments started. Animal welfare and experimental procedures were strictly in accordance with the ethical norms of the Nanjing University of Chinese Medicine. All rats were fasted for 12 h with free access to water prior to the experiments, twenty-four rats were divided into four groups and then were given a single dose of ASE, ASE-SF, AS-MF, AS-M-SF. A 40 mg/mL ASE (the amount of MF, SF added to group AS-MF, ASE-SF, AS-M-SF were based on the proportion extracted from A. asphodeloides) aqueous solution in each group was administered orally at a dose of 400 mg/kg, which contained 171.61, 35.92, 23.62, 16.53 mg/kg of timosaponin BII, anemarsaponin BIII, timosaponin AIII, timosaponin E1, respectively.
# About 400 μL blood samples were collected from venipuncture before intragastric gavage and at 0.083, 0.25, 0.5, 1, 1.5, 2, 4, 6, 8, 10, 12, 24 h after a single oral administration. The blood samples were immediately transferred to heparinized tubes and centrifuged at 3000 rpm for 10 min, and the supernatant was transferred into 2.0 mL Eppendorf tubes and stored at −80 °C prior to analysis. Blank plasma was obtained from the rat without oral administration and was used to investigate the assay development and validation.
# To calculate the pharmacokinetic parameters of analytes in different group, concentrations–time dada were analyzed by DAS 3.2 software (Mathematical Pharmacology Professional Committee of China, Shanghai, China, 2011). Data were measured as the mean ± standard deviation (S.D.) with triplicate measurements. The identification of significances between different groups was executed with Student’s t-test. A p value < 0.05 was considered statistically significant.
# [3] = high concentration (388.00–520.00 ng/mL)
# [4] = low concentration (3.88–5.20 ng/mL)
# [5] = middle concentration (38.80–52.00 ng/mL)
# [6] = rat, plasma, po, 400 mg/kg, Group ASE (ASE 400 mg/kg)
# [7] = rat, plasma, po, 400 mg/kg, Group ASE-MF (ASE 400 mg/kg plus macromolecular fraction)
# [8] = rat, plasma, po, 400 mg/kg, Group ASE-MF
# [9] = rat, plasma, po, 400 mg/kg, Group ASE-SF (ASE 400 mg/kg plus small molecule fraction)
# [10] = rat, plasma, po, 400 mg/kg, Group ASE-SF
# [11] = rat, plasma, po, 400 mg/kg, Group ASE-SF-MF
Compound,"Stability, Auto-Sampler for 24 h, Mean [1, 3]","Stability, at −80 °C for 1 Month, Mean [1, 3]","Stability, Freeze–Thaw Cycles, Mean [1, 3]","Stability, Auto-Sampler for 24 h, Mean [1, 4]","Stability, at −80 °C for 1 Month, Mean [1, 4]","Stability, Freeze–Thaw Cycles, Mean [1, 4]","Stability, Auto-Sampler for 24 h, Mean [1, 5]","Stability, at −80 °C for 1 Month, Mean [1, 5]","Stability, Freeze–Thaw Cycles, Mean [1, 5]","AUC(0-t) [2, 6]","Cmax [2, 6]","half-life [2, 6]","Tmax [2, 6]","Cmax [2, 7]","AUC(0-t) [2, 8]","half-life [2, 8]","Tmax [2, 8]","Cmax [2, 9]","half-life [2, 10]","Tmax [2, 10]",also measured
"C[C@@H](CC[C@@]1(O)O[C@H]2C[C@H]3[C@@H]4CC[C@@H]5C[C@@H](O[C@@H]6O[C@H](CO)[C@H](O)[C@H](O)[C@H]6O[C@@H]6O[C@H](CO)[C@@H](O)[C@H](O)[C@H]6O)CC[C@]5(C)[C@H]4CC[C@]3(C)[C@H]2[C@@H]1C)CO[C@@H]1O[C@H](CO)[C@@H](O)[C@H](O)[C@H]1O [Timosaponin BII, timosaponin BII]",88.3%,95.4%,91.4%,95.3%,94.7%,98.0%,98.1%,98.2%,95.5%,2040 ± 146 ng·h/mL,271 ± 22.5 ng/mL,193 ± 70.2 min,3.75 ± 1.78 h,287 ± 11.9 ng/mL,1980 ± 104 ng·h/mL,200 ± 71.4 min,3.41 ± 1.43 h,415 ± 41.8 ng/mL,218 ± 76.8 min,5 ± 1.67 h,"AUC(0-t) ([2]; 400 mg/kg, Group ASE-SF-MF): 3310 ± 575 ng·h/mL; half-life ([2]; 400 mg/kg, Group ASE-SF-MF): 311 ± 113 min; Tmax ([2]; 400 mg/kg, Group ASE-SF-MF): 3.17 ± 2.21 h; AUC(0-t) [2, 10]: 3090 ± 628 ng·h/mL; Cmax ([2]; Group ASE-SF-MF (ASE 400 mg/kg plus small molecule and macromolecular fraction)): 400 ± 39.6 ng/mL; T1/2 ([2]; Group ASE-SF): no obvious difference; shape of plasma concentration-time curve ([2]; rat): double peak"
"C[C@H]1CC[C@@]2(OC1)O[C@H]1C[C@H]3[C@@H]4CC[C@@H]5C[C@@H](O[C@@H]6O[C@H](CO)[C@H](O)[C@H](O)[C@H]6O[C@@H]6O[C@H](CO)[C@@H](O)[C@H](O)[C@H]6O)CC[C@]5(C)[C@H]4CC[C@]3(C)[C@H]1[C@@H]2C [Timosaponin AIII, timosaponin AIII]",96.4%,99.0%,102.8%,100.9%,100.4%,102.2%,97.0%,101.7%,96.2%,644 ± 59 ng·h/mL,65.2 ± 4.16 ng/mL,319 ± 182 min,5.66 ± 0.81 h,63.6 ± 3.16 ng/mL,688 ± 46.3 ng·h/mL,417 ± 374 min,4.33 ± 0.81 h,69.8 ± 2.86 ng/mL,492 ± 164 min,5.33 ± 1.03 h,"Cmax ([2]; rat, plasma, po, 400 mg/kg, Group ASE-SF-MF (ASE 400 mg/kg plus small molecule and macromolecular fraction)): 74 ± 6.18 ng/mL; AUC(0-t) [2, 11]: 890 ± 57.2 ng·h/mL; half-life [2, 11]: 536 ± 74.4 min; Tmax [2, 11]: 5.66 ± 0.81 h; T1/2 ([2]; Group ASE-SF): significantly increased; shape of plasma concentration-time curve ([2]; rat): single peak"
